{"source": "ChEMBL document CHEMBL1155237", "about": "“Selective inhibitors of the mutant B-Raf pathway: discovery of a potent and orally bioavailable aminoisoquinoline” (J Med Chem, 2009)", "key": {"[1]": {"biological_target": "SRSF protein kinase 2 (Homo sapiens) (UniProt P78362)", "assay": "Inhibition of SRPK2 assessed as enzyme activity at 1 uM relative to untreated control", "design": "scale not given: the % may be the effect or the level left"}, "[2]": {"biological_target": "Calcium/calmodulin-dependent protein kinase kinase 1 (Homo sapiens) (UniProt Q8N5S9)", "assay": "Inhibition of CAMKK1 assessed as enzyme activity at 1 uM relative to untreated control", "design": "scale not given: the % may be the effect or the level left"}, "[3]": {"biological_target": "Tyrosine-protein kinase FRK (Homo sapiens) (UniProt P42685)", "sequence (P42685 whole entry)": "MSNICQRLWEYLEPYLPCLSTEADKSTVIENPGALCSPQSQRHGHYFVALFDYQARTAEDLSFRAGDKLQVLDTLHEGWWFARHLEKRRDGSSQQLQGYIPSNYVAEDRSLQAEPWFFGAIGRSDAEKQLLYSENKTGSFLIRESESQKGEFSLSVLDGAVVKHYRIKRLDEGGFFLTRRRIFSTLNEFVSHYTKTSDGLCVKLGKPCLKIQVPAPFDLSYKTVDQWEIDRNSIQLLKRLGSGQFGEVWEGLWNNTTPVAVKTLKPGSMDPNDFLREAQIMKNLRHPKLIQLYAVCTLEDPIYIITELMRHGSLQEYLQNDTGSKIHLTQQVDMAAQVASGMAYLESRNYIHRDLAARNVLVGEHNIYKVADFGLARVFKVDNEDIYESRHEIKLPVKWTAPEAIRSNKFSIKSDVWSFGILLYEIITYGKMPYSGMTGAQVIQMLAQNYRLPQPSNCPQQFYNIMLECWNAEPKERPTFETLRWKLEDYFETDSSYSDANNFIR", "assay": "Inhibition of FRK assessed as enzyme activity at 1 uM relative to untreated control", "design": "scale not given: the % may be the effect or the level left"}, "[4]": {"biological_target": "Wee1-like protein kinase 2 (Homo sapiens) (UniProt P0C1S8)", "assay": "Inhibition of WEE2 assessed as enzyme activity at 1 uM relative to untreated control", "design": "scale not given: the % may be the effect or the level left"}, "[5]": {"biological_target": "Casein kinase I isoform alpha-like (Homo sapiens) (UniProt Q8N752)", "assay": "Inhibition of CSNK1A1L assessed as enzyme activity at 1 uM relative to untreated control", "design": "scale not given: the % may be the effect or the level left"}, "[6]": {"biological_target": "Ankyrin repeat and protein kinase domain-containing protein 1 (Homo sapiens) (UniProt Q8NFD2)", "assay": "Inhibition of ANKK1 assessed as enzyme activity at 1 uM relative to untreated control", "design": "scale not given: the % may be the effect or the level left"}, "[7]": {"biological_target": "Serine/threonine-protein kinase PAK 4 (Homo sapiens) (UniProt O96013)", "assay": "Inhibition of PAK4 assessed as enzyme activity at 1 uM relative to untreated control", "design": "scale not given: the % may be the effect or the level left"}, "[8]": {"biological_target": "Cyclin-dependent kinase 9 (Homo sapiens) (UniProt P50750)", "assay": "Inhibition of CDK9 assessed as enzyme activity at 1 uM relative to untreated control", "design": "scale not given: the % may be the effect or the level left"}, "[9]": {"biological_target": "Receptor-type tyrosine-protein kinase FLT3 (Homo sapiens) (UniProt P36888)", "assay": "Inhibition of FLT3 assessed as enzyme activity at 1 uM relative to untreated control", "design": "scale not given: the % may be the effect or the level left"}, "[10]": {"biological_target": "NUAK family SNF1-like kinase 2 (Homo sapiens) (UniProt Q9H093)", "sequence (Q9H093 whole entry)": "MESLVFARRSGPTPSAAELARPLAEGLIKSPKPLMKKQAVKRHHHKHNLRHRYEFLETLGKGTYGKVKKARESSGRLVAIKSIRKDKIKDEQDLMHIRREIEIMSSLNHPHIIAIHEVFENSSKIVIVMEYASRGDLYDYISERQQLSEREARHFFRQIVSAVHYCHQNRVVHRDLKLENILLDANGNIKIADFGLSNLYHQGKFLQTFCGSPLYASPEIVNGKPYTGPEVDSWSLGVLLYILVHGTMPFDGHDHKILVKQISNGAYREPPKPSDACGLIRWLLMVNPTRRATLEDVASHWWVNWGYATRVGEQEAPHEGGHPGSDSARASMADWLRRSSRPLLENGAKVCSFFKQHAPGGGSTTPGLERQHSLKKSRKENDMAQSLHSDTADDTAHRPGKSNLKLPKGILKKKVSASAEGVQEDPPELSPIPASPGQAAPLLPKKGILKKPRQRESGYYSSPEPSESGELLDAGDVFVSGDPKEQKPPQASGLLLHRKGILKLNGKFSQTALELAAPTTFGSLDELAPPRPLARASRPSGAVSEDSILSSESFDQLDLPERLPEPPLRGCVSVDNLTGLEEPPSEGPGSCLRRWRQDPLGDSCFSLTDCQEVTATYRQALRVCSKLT", "assay": "Inhibition of SNARK assessed as enzyme activity at 1 uM relative to untreated control", "design": "scale not given: the % may be the effect or the level left"}, "[11]": {"biological_target": "Serine/threonine-protein kinase BRSK2 (Homo sapiens) (UniProt Q8IWQ3)", "assay": "Inhibition of BRSK2 assessed as enzyme activity at 1 uM relative to untreated control", "design": "scale not given: the % may be the effect or the level left"}, "[12]": {"biological_target": "Glycogen synthase kinase-3 alpha (Homo sapiens) (UniProt P49840)", "assay": "Inhibition of GSK3A assessed as enzyme activity at 1 uM relative to untreated control", "design": "scale not given: the % may be the effect or the level left"}, "[13]": {"biological_target": "Non-receptor tyrosine-protein kinase TNK1 (Homo sapiens) (UniProt Q13470)", "assay": "Inhibition of TNK1 assessed as enzyme activity at 1 uM relative to untreated control", "design": "scale not given: the % may be the effect or the level left"}, "[14]": {"biological_target": "Misshapen-like kinase 1 (Homo sapiens) (UniProt Q8N4C8)", "assay": "Inhibition of MINK assessed as enzyme activity at 1 uM relative to untreated control", "design": "scale not given: the % may be the effect or the level left"}, "[15]": {"biological_target": "Receptor tyrosine-protein kinase erbB-2 (Homo sapiens) (UniProt P04626)", "assay": "Inhibition of ERBB2 assessed as enzyme activity at 1 uM relative to untreated control", "design": "scale not given: the % may be the effect or the level left"}, "[16]": {"biological_target": "Membrane-associated tyrosine- and threonine-specific cdc2-inhibitory kinase (Homo sapiens) (UniProt Q99640)", "sequence (Q99640 whole entry)": "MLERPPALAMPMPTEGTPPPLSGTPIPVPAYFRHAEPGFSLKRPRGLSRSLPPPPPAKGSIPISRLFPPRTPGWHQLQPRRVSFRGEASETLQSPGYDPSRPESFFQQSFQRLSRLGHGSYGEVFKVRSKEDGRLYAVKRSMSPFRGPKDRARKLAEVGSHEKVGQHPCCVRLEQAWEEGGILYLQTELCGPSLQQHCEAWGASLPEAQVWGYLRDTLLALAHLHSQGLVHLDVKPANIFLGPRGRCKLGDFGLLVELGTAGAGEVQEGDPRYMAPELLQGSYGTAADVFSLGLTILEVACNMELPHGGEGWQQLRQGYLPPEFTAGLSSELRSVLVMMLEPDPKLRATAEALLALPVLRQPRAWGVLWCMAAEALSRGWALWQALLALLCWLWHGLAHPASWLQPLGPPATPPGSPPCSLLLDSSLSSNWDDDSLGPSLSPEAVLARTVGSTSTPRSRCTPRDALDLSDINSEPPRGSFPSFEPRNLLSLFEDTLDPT", "assay": "Inhibition of PKMYT1 assessed as enzyme activity at 1 uM relative to untreated control", "design": "scale not given: the % may be the effect or the level left"}, "[17]": {"system": "A-375", "assay": "Antitumor activity against human A375 SQ2 cells xenografted in CD1 mouse assessed as inhibition of tumor growth at 1 mg/kg, po qd for 14 days", "assay_type": "functional", "settings": "A-375, 336 h"}, "[18]": {"biological_target": "Receptor-interacting serine/threonine-protein kinase 2 (Homo sapiens) (UniProt O43353)", "assay": "Inhibition of RIPK2 assessed as enzyme activity at 1 uM relative to untreated control", "design": "scale not given: the % may be the effect or the level left"}, "[19]": {"biological_target": "Fibroblast growth factor receptor 2 (Homo sapiens) (UniProt P21802)", "sequence (P21802 22-821 limits assumed)": "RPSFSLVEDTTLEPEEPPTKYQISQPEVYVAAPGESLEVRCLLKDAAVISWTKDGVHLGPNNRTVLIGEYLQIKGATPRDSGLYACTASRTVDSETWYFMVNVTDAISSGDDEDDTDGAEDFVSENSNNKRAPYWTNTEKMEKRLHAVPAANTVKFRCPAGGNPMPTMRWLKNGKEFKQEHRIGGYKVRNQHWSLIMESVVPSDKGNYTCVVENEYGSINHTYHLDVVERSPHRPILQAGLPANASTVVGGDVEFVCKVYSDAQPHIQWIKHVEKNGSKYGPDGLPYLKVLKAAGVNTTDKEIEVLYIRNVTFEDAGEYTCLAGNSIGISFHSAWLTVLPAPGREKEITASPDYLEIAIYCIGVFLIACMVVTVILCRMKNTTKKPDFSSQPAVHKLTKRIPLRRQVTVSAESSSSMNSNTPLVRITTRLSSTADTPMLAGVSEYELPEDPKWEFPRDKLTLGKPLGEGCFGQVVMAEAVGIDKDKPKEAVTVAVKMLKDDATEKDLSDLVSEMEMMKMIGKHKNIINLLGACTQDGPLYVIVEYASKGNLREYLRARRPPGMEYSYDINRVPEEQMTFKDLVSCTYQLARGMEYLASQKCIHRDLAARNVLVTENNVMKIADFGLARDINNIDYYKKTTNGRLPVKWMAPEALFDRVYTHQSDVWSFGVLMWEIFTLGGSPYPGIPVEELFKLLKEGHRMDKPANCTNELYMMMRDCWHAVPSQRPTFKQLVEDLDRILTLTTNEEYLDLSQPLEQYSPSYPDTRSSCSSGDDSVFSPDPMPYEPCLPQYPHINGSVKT", "assay": "Inhibition of FGFR2 assessed as enzyme activity at 1 uM relative to untreated control", "design": "scale not given: the % may be the effect or the level left"}, "[20]": {"biological_target": "Serine/threonine-protein kinase 26 (Homo sapiens) (UniProt Q9P289)", "assay": "Inhibition of MST4 assessed as enzyme activity at 1 uM relative to untreated control", "design": "scale not given: the % may be the effect or the level left"}, "[21]": {"biological_target": "Serine/threonine-protein kinase 38-like (Homo sapiens) (UniProt Q9Y2H1)", "assay": "Inhibition of NDR2 assessed as enzyme activity at 1 uM relative to untreated control", "design": "scale not given: the % may be the effect or the level left"}, "[22]": {"biological_target": "Phosphorylase b kinase gamma catalytic chain, liver/testis isoform (Homo sapiens) (UniProt P15735)", "assay": "Inhibition of PHKG2 assessed as enzyme activity at 1 uM relative to untreated control", "design": "scale not given: the % may be the effect or the level left"}, "[23]": {"biological_target": "Protein kinase C delta type (Homo sapiens) (UniProt Q05655)", "assay": "Inhibition of PRKCdelta assessed as enzyme activity at 1 uM relative to untreated control", "design": "scale not given: the % may be the effect or the level left"}, "[24]": {"assay": "Oral bioavailability in Sprague-Dawley rat at 5 mg/kg", "assay_type": "ADME, organism-based", "settings": "in vivo"}, "[25]": {"biological_target": "RAF proto-oncogene serine/threonine-protein kinase (Homo sapiens) (UniProt P04049)", "assay": "Inhibition of RAF1 assessed as enzyme activity at 1 uM relative to untreated control", "design": "scale not given: the % may be the effect or the level left"}, "[26]": {"biological_target": "Myotonin-protein kinase (Homo sapiens) (UniProt Q09013)", "assay": "Inhibition of DMPK assessed as enzyme activity at 1 uM relative to untreated control", "design": "scale not given: the % may be the effect or the level left"}, "[27]": {"biological_target": "Tyrosine-protein kinase SYK (Homo sapiens) (UniProt P43405)", "assay": "Inhibition of SYK assessed as enzyme activity at 1 uM relative to untreated control", "design": "scale not given: the % may be the effect or the level left"}, "[28]": {"biological_target": "Tyrosine-protein kinase Fgr (Homo sapiens) (UniProt P09769)", "assay": "Inhibition of FGR assessed as enzyme activity at 1 uM relative to untreated control", "design": "scale not given: the % may be the effect or the level left"}, "[29]": {"biological_target": "Ribosomal protein S6 kinase alpha-5 (Homo sapiens) (UniProt O75582)", "assay": "Inhibition of RPS6KA5 kinase domain 1 assessed as enzyme activity at 1 uM relative to untreated control", "design": "scale not given: the % may be the effect or the level left"}, "[30]": {"biological_target": "Serine/threonine-protein kinase D3 (Homo sapiens) (UniProt O94806)", "sequence (O94806 whole entry)": "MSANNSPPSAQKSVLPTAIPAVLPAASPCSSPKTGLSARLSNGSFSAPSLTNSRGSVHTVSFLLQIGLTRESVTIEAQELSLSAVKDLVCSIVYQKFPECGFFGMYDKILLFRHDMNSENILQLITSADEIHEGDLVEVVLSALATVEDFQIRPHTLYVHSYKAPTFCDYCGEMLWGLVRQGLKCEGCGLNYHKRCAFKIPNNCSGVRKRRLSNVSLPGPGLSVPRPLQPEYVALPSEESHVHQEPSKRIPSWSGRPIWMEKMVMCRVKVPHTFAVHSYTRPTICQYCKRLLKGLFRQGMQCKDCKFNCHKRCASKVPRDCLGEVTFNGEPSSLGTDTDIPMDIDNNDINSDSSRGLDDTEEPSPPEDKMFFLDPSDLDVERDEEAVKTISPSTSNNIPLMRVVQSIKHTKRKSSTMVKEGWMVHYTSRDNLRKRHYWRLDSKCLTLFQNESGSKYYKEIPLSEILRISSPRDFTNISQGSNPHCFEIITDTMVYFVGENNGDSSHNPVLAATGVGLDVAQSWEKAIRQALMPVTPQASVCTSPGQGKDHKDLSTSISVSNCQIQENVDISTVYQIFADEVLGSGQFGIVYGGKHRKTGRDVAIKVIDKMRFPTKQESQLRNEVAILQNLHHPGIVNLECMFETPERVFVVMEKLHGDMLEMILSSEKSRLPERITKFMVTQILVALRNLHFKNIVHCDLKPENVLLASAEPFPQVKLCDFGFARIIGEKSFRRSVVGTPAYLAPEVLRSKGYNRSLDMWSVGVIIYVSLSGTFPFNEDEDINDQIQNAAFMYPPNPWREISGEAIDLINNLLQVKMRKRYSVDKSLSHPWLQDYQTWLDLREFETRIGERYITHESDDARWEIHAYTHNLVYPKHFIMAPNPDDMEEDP", "assay": "Inhibition of PRKD3 assessed as enzyme activity at 1 uM relative to untreated control", "design": "scale not given: the % may be the effect or the level left"}, "[31]": {"biological_target": "Epidermal growth factor receptor (Homo sapiens) (UniProt P04626+P00533+Q15303+P21860)", "assay": "Inhibition of EGFR S752-I759del mutant assessed as enzyme activity at 1 uM relative to untreated control", "assay_type": "protein assay", "design": "scale not given: the % may be the effect or the level left"}, "[32]": {"biological_target": "Aurora kinase C (Homo sapiens) (UniProt Q9UQB9)", "assay": "Inhibition of AURKC assessed as enzyme activity at 1 uM relative to untreated control", "design": "scale not given: the % may be the effect or the level left"}, "[33]": {"system": "Receptor-type tyrosine-protein kinase FLT3 (Homo sapiens), P36888 [D835H]", "assay": "Inhibition of FLT3 D835H mutant assessed as enzyme activity at 1 uM relative to untreated control", "design": "scale not given: the % may be the effect or the level left"}, "[34]": {"biological_target": "Serine/threonine-protein kinase 3 (Homo sapiens) (UniProt Q13188)", "assay": "Inhibition of MST2 assessed as enzyme activity at 1 uM relative to untreated control", "design": "scale not given: the % may be the effect or the level left"}, "[35]": {"biological_target": "Homeodomain-interacting protein kinase 1 (Homo sapiens) (UniProt Q86Z02)", "sequence (Q86Z02 whole entry, looked up)": "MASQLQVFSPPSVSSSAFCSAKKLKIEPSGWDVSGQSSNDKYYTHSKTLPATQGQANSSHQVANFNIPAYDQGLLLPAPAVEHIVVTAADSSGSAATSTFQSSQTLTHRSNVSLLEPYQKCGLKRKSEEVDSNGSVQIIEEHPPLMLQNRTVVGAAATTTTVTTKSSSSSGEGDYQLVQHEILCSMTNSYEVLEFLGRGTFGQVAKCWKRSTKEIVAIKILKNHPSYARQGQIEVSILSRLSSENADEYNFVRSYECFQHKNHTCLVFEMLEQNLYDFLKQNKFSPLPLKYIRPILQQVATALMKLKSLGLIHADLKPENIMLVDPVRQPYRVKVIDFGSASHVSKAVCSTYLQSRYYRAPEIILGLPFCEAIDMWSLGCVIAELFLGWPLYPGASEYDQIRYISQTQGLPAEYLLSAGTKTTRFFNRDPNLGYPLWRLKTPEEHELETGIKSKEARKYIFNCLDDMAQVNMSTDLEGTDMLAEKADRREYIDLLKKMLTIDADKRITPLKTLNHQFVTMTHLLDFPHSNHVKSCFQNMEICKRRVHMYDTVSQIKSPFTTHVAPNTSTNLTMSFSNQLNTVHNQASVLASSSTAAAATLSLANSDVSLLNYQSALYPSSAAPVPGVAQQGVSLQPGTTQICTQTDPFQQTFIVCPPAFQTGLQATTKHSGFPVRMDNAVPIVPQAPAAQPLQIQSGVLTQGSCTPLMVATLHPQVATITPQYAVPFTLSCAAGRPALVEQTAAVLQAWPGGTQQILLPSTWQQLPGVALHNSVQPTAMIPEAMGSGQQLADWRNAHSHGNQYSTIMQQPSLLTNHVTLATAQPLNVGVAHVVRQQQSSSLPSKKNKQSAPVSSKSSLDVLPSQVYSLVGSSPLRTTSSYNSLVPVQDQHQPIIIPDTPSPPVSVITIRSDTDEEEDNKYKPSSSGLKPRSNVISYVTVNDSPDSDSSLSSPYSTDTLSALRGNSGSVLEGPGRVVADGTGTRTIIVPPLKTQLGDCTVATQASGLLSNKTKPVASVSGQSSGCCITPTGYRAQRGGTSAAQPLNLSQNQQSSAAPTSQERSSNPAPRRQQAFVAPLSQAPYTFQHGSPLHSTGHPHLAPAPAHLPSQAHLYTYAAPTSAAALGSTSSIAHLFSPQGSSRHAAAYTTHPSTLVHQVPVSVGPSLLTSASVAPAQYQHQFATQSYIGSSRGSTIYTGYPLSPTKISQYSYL", "assay": "Inhibition of HIPK1 assessed as enzyme activity at 1 uM relative to untreated control", "design": "scale not given: the % may be the effect or the level left"}, "[36]": {"biological_target": "Proto-oncogene tyrosine-protein kinase receptor Ret (Homo sapiens) (UniProt P07949)", "assay": "Inhibition of RET assessed as enzyme activity at 1 uM relative to untreated control", "design": "scale not given: the % may be the effect or the level left"}, "[37]": {"biological_target": "Cyclin-dependent kinase 14 (Homo sapiens) (UniProt O94921)", "sequence (O94921 whole entry)": "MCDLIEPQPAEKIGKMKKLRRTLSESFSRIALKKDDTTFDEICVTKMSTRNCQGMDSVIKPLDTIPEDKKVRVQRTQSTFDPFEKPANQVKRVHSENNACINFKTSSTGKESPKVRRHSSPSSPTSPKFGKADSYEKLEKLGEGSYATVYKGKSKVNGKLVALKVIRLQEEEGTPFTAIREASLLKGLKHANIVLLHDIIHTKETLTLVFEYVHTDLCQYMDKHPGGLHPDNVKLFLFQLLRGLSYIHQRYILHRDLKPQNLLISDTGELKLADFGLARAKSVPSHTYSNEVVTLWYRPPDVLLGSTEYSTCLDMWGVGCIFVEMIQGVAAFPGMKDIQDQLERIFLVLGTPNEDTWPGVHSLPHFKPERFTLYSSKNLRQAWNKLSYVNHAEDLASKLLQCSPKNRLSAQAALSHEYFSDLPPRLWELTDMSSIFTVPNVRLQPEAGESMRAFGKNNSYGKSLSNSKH", "assay": "Inhibition of PFTK1 assessed as enzyme activity at 1 uM relative to untreated control", "design": "scale not given: the % may be the effect or the level left"}}}
{"smiles": "Cc1ccc2c(Nc3ccc(Cl)cc3)nccc2c1Nc1ncccc1-c1ncnc2[nH]cnc12.Cl.Cl.Cl", "values": [{"measurement": "Activity", "setting": "[1]", "result": 100, "unit": "%"}, {"measurement": "Activity", "setting": "[2]", "result": 96, "unit": "%"}, {"measurement": "Activity", "setting": "[3]", "result": 17, "unit": "%"}, {"measurement": "Activity", "setting": "[4]", "result": 97, "unit": "%"}, {"measurement": "Activity", "setting": "[5]", "result": 95, "unit": "%"}, {"measurement": "Activity", "setting": "[6]", "result": 100, "unit": "%"}, {"measurement": "Activity", "setting": "[7]", "result": 92, "unit": "%"}, {"measurement": "Activity", "setting": "[8]", "result": 97, "unit": "%"}, {"measurement": "Activity", "setting": "[9]", "result": 62, "unit": "%"}, {"measurement": "Activity", "setting": "[10]", "result": 100, "unit": "%"}, {"measurement": "Activity", "setting": "[11]", "result": 87, "unit": "%"}, {"measurement": "Activity", "setting": "[12]", "result": 100, "unit": "%"}, {"measurement": "Activity", "setting": "[13]", "result": 100, "unit": "%"}, {"measurement": "Activity", "setting": "[14]", "result": 80, "unit": "%"}, {"measurement": "Activity", "setting": "[15]", "result": 97, "unit": "%"}, {"measurement": "Activity", "setting": "[16]", "result": 85, "unit": "%"}, {"measurement": "inhibition in vivo at 1 mg/kg", "setting": "[17]", "result": 22, "unit": "%"}, {"measurement": "Activity", "setting": "[18]", "result": 100, "unit": "%"}, {"measurement": "Activity", "setting": "[19]", "result": 38, "unit": "%"}, {"measurement": "Activity", "setting": "[20]", "result": 100, "unit": "%"}, {"measurement": "Activity", "setting": "[21]", "result": 100, "unit": "%"}, {"measurement": "Activity", "setting": "[22]", "result": 100, "unit": "%"}, {"measurement": "Activity", "setting": "[23]", "result": 88, "unit": "%"}, {"measurement": "bioavailability", "setting": "[24]", "result": 80, "unit": "%"}, {"measurement": "Activity", "setting": "[25]", "result": 0, "unit": "%"}, {"measurement": "Activity", "setting": "[26]", "result": 100, "unit": "%"}, {"measurement": "Activity", "setting": "[27]", "result": 86, "unit": "%"}, {"measurement": "Activity", "setting": "[28]", "result": 100, "unit": "%"}, {"measurement": "Activity", "setting": "[29]", "result": 90, "unit": "%"}, {"measurement": "Activity", "setting": "[30]", "result": 100, "unit": "%"}, {"measurement": "Activity", "setting": "[31]", "result": 90, "unit": "%"}, {"measurement": "Activity", "setting": "[32]", "result": 86, "unit": "%"}, {"measurement": "Activity", "setting": "[33]", "result": 99, "unit": "%"}, {"measurement": "Activity", "setting": "[34]", "result": 100, "unit": "%"}, {"measurement": "Activity", "setting": "[35]", "result": 99, "unit": "%"}, {"measurement": "Activity", "setting": "[36]", "result": 65, "unit": "%"}, {"measurement": "Activity", "setting": "[37]", "result": 100, "unit": "%"}]}
